# Measured values published in patent publication US20200405696A1, “INHIBITORS OF INDOLEAMINE 2,3-DIOXYGENASE AND/OR TRYPTOPHAN 2,3-DIOXYGENASE” (IDORSIA PHARMACEUTICALS LTD, priority 2018, published 2020).
# Legend:
# [1] = target: T1, Recombinant human TDO comprising amino acids 19-407 (Homo sapiens, UniProt P48775); test: TDO2 enzymatic assay (NFK quantified by LCMS); format: biochemical; details: 15 nM enzyme, 200 μM L-tryptophan, pH7, 30 minutes pre-incubation at RT; mean values when measured multiple times; read-out: hTDO activity (IC50 in nM)
# T1 construct: Recombinant human TDO comprising amino acids 19-407 with a N-terminal hexahistidine tag; hexahistidine (His6) (N); made in house; host or cells: E. coli
# T1 sequence (P48775 19-406 limits assumed): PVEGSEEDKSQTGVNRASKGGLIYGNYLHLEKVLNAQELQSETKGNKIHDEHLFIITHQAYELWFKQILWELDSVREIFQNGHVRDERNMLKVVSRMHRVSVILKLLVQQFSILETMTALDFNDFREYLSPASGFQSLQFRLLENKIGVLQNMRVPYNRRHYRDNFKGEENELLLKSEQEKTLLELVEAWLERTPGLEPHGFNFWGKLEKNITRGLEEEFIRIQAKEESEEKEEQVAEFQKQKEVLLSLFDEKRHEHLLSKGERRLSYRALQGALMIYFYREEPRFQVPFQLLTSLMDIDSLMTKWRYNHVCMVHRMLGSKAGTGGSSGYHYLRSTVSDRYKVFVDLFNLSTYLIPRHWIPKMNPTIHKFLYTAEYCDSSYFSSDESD
# Method in brief: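 NFK formed over 30 min at RT from 200 μM L-tryptophan was measured by LCMS, normalized to d5-tryptophan, after compound (0.5 nM–10 μM, duplicates, 0.6% DMSO) was preincubated 30 min with 15 nM recombinant His-tagged TDO 19-407 in phosphate buffer pH 7. IC50 from four-parameter logistic fit; repeats averaged.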
# [2] = target: T2, Recombinant full-length human IDO1 (Homo sapiens, UniProt P14902); test: IDO1 enzymatic assay (NFK quantified by LCMS); format: biochemical; details: 2 nM enzyme, 5 μM L-tryptophan, pH6.5, 30 minutes pre-incubation at RT; mean values when measured multiple times; read-out: hIDO activity (IC50 in nM)
# T2 construct: Recombinant full-length human IDO1 with a N-terminal hexahistidine tag; hexahistidine (His6) (N); made in house; host or cells: E. coli
# T2 sequence (P14902 whole entry): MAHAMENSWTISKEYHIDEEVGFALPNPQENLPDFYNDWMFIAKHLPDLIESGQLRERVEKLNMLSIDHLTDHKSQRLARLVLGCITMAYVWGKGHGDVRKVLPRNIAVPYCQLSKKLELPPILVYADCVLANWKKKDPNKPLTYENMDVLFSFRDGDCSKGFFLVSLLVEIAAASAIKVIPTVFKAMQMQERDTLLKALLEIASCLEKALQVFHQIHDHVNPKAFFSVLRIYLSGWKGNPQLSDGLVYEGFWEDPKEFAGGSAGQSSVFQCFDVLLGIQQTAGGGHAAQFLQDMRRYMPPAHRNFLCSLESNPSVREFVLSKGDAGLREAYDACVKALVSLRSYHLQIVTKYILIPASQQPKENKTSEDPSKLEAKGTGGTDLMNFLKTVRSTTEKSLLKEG
# Method in brief: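 IC50 comes from four-parameter logistic fits of duplicate data, with NFK quantified by LCMS and normalized to L-Trp-(indole-d5). Compound (0.5 nM–10 μM) was preincubated 30 min at RT with 2 nM E. coli-expressed IDO1 before a 30 min reaction with 5 μM tryptophan in pH 6.5 buffer containing ascorbate and methylene blue.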
SMILES,IC50 [1],IC50 [2]
"Oc1ccc(-n2cc(C(O)c3c([C@@H]4C[C@@H]4F)sc4cncn34)nn2)cc1Cl (relative stereo) [Example 325, 2-Chloro-4-(4-{[2-(cis-2-fluoro-cyclopropyl)-imidazo[5,1-b]thiazol-3-yl]-hydroxy-methyl}-[1,2,3]triazol-1-yl)-phenol]",> 10200 nM,8.31 nM
"Oc1ccc(-n2cc(C(O)c3c([C@@H]4C[C@H]4F)sc4cncn34)nn2)cc1Cl (relative stereo) [Example 328, 2-Chloro-4-(4-{[2-(trans-2-fluoro-cyclopropyl)-imidazo[5,1-b]thiazol-3-yl]-hydroxy-methyl}-[1,2,3]triazol-1-yl)-phenol]",> 10200 nM,13.1 nM
"COc1ccc(-n2nnc(C(O)c3c([C@@H]4C[C@H]4F)sc4cncn34)c2F)cc1 (relative stereo) [Example 335, [2-(trans-2-Fluoro-cyclopropyl)-imidazo[5,1-b]thiazol-3-yl]-[5-fluoro-1-(4-methoxy-phenyl)-1H-[1,2,3]triazol-4-yl]-methanol]",> 10200 nM,23 nM
"O[C@@H](c1cn(-c2ccccc2)nn1)c1c(C2CC2)sc2cncn12 [Example 2a, (R)-(2-Cyclopropyl-imidazo[5,1-b]thiazol-3-yl)-(1-phenyl-1H-[1,2,3]triazol-4-yl)-methanol]",> 10200 nM,11.7 nM
"O[C@@H](c1cn(-c2ccc3[nH]ccc3c2)nn1)c1c(C2CC2)sc2cncn12 [Example 16a, (R)-(2-Cyclopropyl-imidazo[5,1-b]thiazol-3-yl)-[1-(1H-indol-5-yl)-1H-[1,2,3]triazol-4-yl]-methanol]",4570 nM,4.55 nM
"N#Cc1cccc(-n2cc([C@H](O)c3c(C4CC4)sc4cncn34)nn2)c1 [Example 18a, 3-{4-[(R)-(2-Cyclopropyl-imidazo[5,1-b]thiazol-3-yl)-hydroxy-methyl]-[1,2,3]triazol-1-yl}-benzonitrile]",> 10200 nM,13.5 nM
"CCc1sc2cncn2c1[C@@H](O)c1cn(-c2ccc(NC(=O)OC)cc2)nn1 [Example 49a, (4-{4-[(R)-(2-Ethyl-imidazo[5,1-b]thiazol-3-yl)-hydroxy-methyl]-[1,2,3]triazol-1-yl}-phenyl)-carbamic acid methyl ester]",1040 nM,2.7 nM
"O[C@@H](c1cnn(-c2ccccc2)c1)c1c(C2CC2)sc2cncn12 [Example 100a, (S)-(2-Cyclopropyl-imidazo[5,1-b]thiazol-3-yl)-(1-phenyl-1H-pyrazol-4-yl)-methanol]",2450 nM,17.5 nM
"Cc1c([C@H](O)c2c(C3CC3)sc3cncn23)nnn1-c1ccccc1 [Example 101a, (R)-(2-Cyclopropyl-imidazo[5,1-b]thiazol-3-yl)-(5-methyl-1-phenyl-1H-[1,2,3]triazol-4-yl)-methanol]",4410 nM,6.31 nM
"CC(C)(O)CCOc1ccc(-n2cc([C@H](O)c3c(C4CC4)sc4cncn34)nn2)cc1 [Example 140a, 4-(4-{4-[(R)-(2-Cyclopropyl-imidazo[5,1-b]thiazol-3-yl)-hydroxy-methyl]-[1,2,3]triazol-1-yl}-phenoxy)-2-methyl-butan-2-ol]",> 10200 nM,7.31 nM
"O[C@@H](c1cn(-c2ccc(OCCC3(O)CC3)cc2)nn1)c1c(C2CC2)sc2cncn12 [Example 142a, 1-[2-(4-{4-[(R)-(2-Cyclopropyl-imidazo[5,1-b]thiazol-3-yl)-hydroxy-methyl]-[1,2,3]triazol-1-yl}-phenoxy)-ethyl]-cyclopropanol]",> 10200 nM,9.51 nM
"Oc1ccc(-n2cc([C@H](O)c3c(C4CC4)sc4cncn34)nn2)cc1Cl [Example 148a, 2-Chloro-4-{4-[(R)-(2-cyclopropyl-imidazo[5,1-b]thiazol-3-yl)-hydroxy-methyl]-[1,2,3]triazol-1-yl}-phenol]",4440 nM,5.25 nM
"CC(C)C(=O)Nc1ccc(-n2cc([C@H](O)c3c(C4CC4)sc4cncn34)nn2)cc1 [Example 192a, N-(4-{4-[(R)-(2-Cyclopropyl-imidazo[5,1-b]thiazol-3-yl)-hydroxy-methyl]-[1,2,3]triazol-1-yl}-phenyl)-isobutyramide]",> 10200 nM,3.71 nM
"CCc1sc2cncn2c1C(O)c1cn(-c2ccc3c(c2)C(C)NS3(=O)=O)nn1 (stereo not drawn) [Example 227, (2-Ethyl-imidazo[5,1-b]thiazol-3-yl)-[1-(3-methyl-1,1-dioxo-2,3-dihydro-1H-1I6-benzo[d]isothiazol-5-yl)-1H-[1,2,3]triazol-4-yl]-methanol]",> 10200 nM,77.8 nM
"CC1NS(=O)(=O)c2ccc(-n3cc(C(O)c4c(C5CC5)sc5cncn45)nn3)cc21 (stereo not drawn) [Example 228, (2-Cyclopropyl-imidazo[5,1-b]thiazol-3-yl)-[1-(3-methyl-1,1-dioxo-2,3-dihydro-1H-1I6-benzo[d]isothiazol-5-yl)-1H-[1,2,3]triazol-4-yl]-methanol]",> 10200 nM,76.1 nM
"CC(C)(O)CCOc1ccc(-n2cc([C@H](O)c3c(-c4ccccc4)sc4cncn34)nn2)cc1Cl [Example 268a, 4-(2-Chloro-4-{4-[(R)-hydroxy-(2-phenyl-imidazo[5,1-b]thiazol-3-yl)-methyl]-[1,2,3]triazol-1-yl}-phenoxy)-2-methyl-butan-2-ol]",10000 nM,123 nM
"OCCCOc1ccc(-n2cc([C@H](O)c3c(C4CC4)sc4cncn34)nn2)cc1Cl [Example 275, 3-(2-Chloro-4-{4-[(R)-(2-cyclopropyl-imidazo[5,1-b]thiazol-3-yl)-hydroxy-methyl]-[1,2,3]triazol-1-yl}-phenoxy)-propan-1-ol]",> 10200 nM,7.03 nM
"O[C@@H](c1cn(-c2ccc(OCC3CCOCC3)c(Cl)c2)nn1)c1c(C2CC2)sc2cncn12 [Example 276, (R)-{1-[3-Chloro-4-(tetrahydro-pyran-4-ylmethoxy)-phenyl]-1H-[1,2,3]triazol-4-yl}-(2-cyclopropyl-imidazo[5,1-b]thiazol-3-yl)-methanol]",> 10200 nM,4.63 nM
"CC(C)(O)CCOc1ccc(-n2cc([C@H](O)c3c(C4CC4)sc4cncn34)nn2)cc1Cl [Example 277, 4-(2-Chloro-4-{4-[(R)-(2-cyclopropyl-imidazo[5,1-b]thiazol-3-yl)-hydroxy-methyl]-[1,2,3]triazol-1-yl}-phenoxy)-2-methyl-butan-2-ol]",> 10200 nM,7.12 nM

# More lines, now with the values ahead:
IC50 [1],IC50 [2],SMILES
> 10200 nM,5.98 nM,"COc1ccc(-n2cc([C@H](O)c3c(C4CC4)sc4cncn34)nn2)cc1 [Example 9a, (R)-(2-Cyclopropyl-imidazo[5,1-b]thiazol-3-yl)-[1-(4-methoxy-phenyl)-1H-[1,2,3]triazol-4-yl]-methanol]"
> 10200 nM,9.7 nM,"O[C@@H](c1cn(-c2ccc(OCC3CC3)cc2)nn1)c1c(C2CC2)sc2cncn12 [Example 35a, (R)-(2-Cyclopropyl-imidazo[5,1-b]thiazol-3-yl)-[1-(4-cyclopropylmethoxy-phenyl)-1H-[1,2,3]triazol-4-yl]-methanol]"
> 10200 nM,4.55 nM,"O[C@@H](c1cn(-c2ccc(OCC3CCOCC3)cc2)nn1)c1c(C2CC2)sc2cncn12 [Example 87a, (R)-(2-Cyclopropyl-imidazo[5,1-b]thiazol-3-yl)-{1-[4-(tetrahydro-pyran-4-ylmethoxy)-phenyl]-1H-[1,2,3]triazol-4-yl}-methanol]"
> 10200 nM,4.09 nM,"OCCCOc1ccc(-n2cc([C@H](O)c3c(C4CC4)sc4cncn34)nn2)cc1 [Example 137a, 3-(4-{4-[(R)-(2-Cyclopropyl-imidazo[5,1-b]thiazol-3-yl)-hydroxy-methyl]-[1,2,3]triazol-1-yl}-phenoxy)-propan-1-ol]"
> 10200 nM,5.44 nM,"CC(C)(O)COc1ccc(-n2cc([C@H](O)c3c(C4CC4)sc4cncn34)nn2)cc1 [Example 139a, 1-(4-{4-[(R)-(2-Cyclopropyl-imidazo[5,1-b]thiazol-3-yl)-hydroxy-methyl]-[1,2,3]triazol-1-yl}-phenoxy)-2-methyl-propan-2-ol]"
> 10200 nM,18.1 nM,"OC(c1cn(-c2ccc(OCC3CCCCO3)cc2)nn1)c1c(C2CC2)sc2cncn12 (stereo not drawn) [Example 143, (2-Cyclopropyl-imidazo[5,1-b]thiazol-3-yl)-{1-[4-(tetrahydro-pyran-2-ylmethoxy)-phenyl]-1H-[1,2,3]triazol-4-yl}-methanol]"
> 10200 nM,8.77 nM,"O[C@@H](c1cn(-c2ccc(OCC3(F)COC3)cc2)nn1)c1c(C2CC2)sc2cncn12 [Example 145a, (R)-(2-Cyclopropyl-imidazo[5,1-b]thiazol-3-yl)-{1-[4-(3-fluoro-oxetan-3-ylmethoxy)-phenyl]-1H-[1,2,3]triazol-4-yl}-methanol]"
> 10200 nM,44.4 nM,"CN1CCCC(COc2ccc(-n3cc(C(O)c4c(C5CC5)sc5cncn45)nn3)cc2)C1 (stereo not drawn) [Example 146, (2-Cyclopropyl-imidazo[5,1-b]thiazol-3-yl)-{1-[4-(1-methyl-piperidin-3-ylmethoxy)-phenyl]-1H-[1,2,3]triazol-4-yl}-methanol]"
